Test system: EGFP reporter (7×TetO array, basal CMV promoter) in HEK293T reporter cell line
Experiment: TAD-seq pooled activation screen of 60-aa fragments fused to PYL1
Format: cell-based, human
Conditions: for logFC high GFP / logFC medium GFP: log 2 fold change of counts, 100 μM ABA 48 hours; for logFC high GFP: sorted high GFP cells (top 1%) vs unsorted cells; for logFC medium GFP: sorted medium GFP cells (top 2-5%) vs unsorted cells; for Hit medium GFP: medium GFP population (top 2-5%); for Hit high GFP: high GFP population (top 1%); call rule not given here
From the text: A fragment library of 75 activators identified in our screen was generated, using 60 amino-acid tiles every 20 aa such that every amino acid was represented by three different fragments (FIG. 3A). The pooled fragment library was fused to PYL1 and recruited to the same GFP reporter used in the original ORFeome screen (FIG. 3A). […] The GFP positive population was sorted into two independent replicates, and fragments in each population were quantified by sequencing. However, in contrast to the ORFeome screen, both high GFP cells (top 1%) and medium GFP cells (top 2-5%) were sorted to potentially identify transactivators of different strength.
Activation domain tiling library generation. A tiling library was generated from 75 proteins identified as activators in the ORFeome screen. Oligonucleotides containing a 5′ adapter […] (SEQ ID NO: 23) and a 3′ adapter […] (SEQ ID NO: 24) to generate a 5′ adapter ([…]) (SEQ ID NO: 11) and a 3′ adapter ([…]) (SEQ ID NO: 12) were synthesized as pooled libraries (Twist Biosciences). 6×50 μl PCR reactions were set up using NEBNext Ultra II Q5 master mix (New England Biolabs) with 5 nM oligos as template. PCR conditions were optimized to find the lowest cycle with a clean visible product at the expected 300 bp length. The thermocycling condition was an initial 30 s at 98° C., then 2 cycles of 98° C. for 10 s, 63° C. for 20 s, and 72° C. for 15 s, followed by 10 more cycles of 98° C. for 10 s and 72° C. for 30 s with a final extension at 72° C. for 5 min. Primers were designed to have Gateway compatible flanking sequences. The resulting libraries were gel extracted by QIAgen gel extraction kit after loading on a 2% TAE gel for 2 hrs at 60V and subsequently cloned into pDONR221 using 20 separate BP reactions in total of 5 μl reactions. The entry plasmid pool was transformed after an overnight reaction into DHSalpha competent E. coli and incubated overnight on LB agar plates containing kanamycin ([…]). Colonies were collected and plasmid DNA purified. 20 LR reactions were then set up as described in the previous section. Each reaction was transformed into NEB 10-beta chemically competent E. coli and grown on LB agar plates containing carbenicillin ([…]) overnight at 30° C. Colonies were counted to ensure >200-fold coverage at each step of cloning, pooled and maxiprepped.
Pooled activation screens. ORFeome and transactivation tiling libraries tagged at the C-terminus with PYL1 were packaged into lentiviral particles. A clonal EGFP reporter cell line stably co-expressing ABI-dCas9 and a gRNA targeting the promoter were transduced at low multiplicity of infection (MOI) with approximately 30% cell survival after puromycin (1 μg/mL) selection. Untransduced cells under the same condition were fully eliminated. Sufficient cells were transduced to maintain >500 fold coverage of the libraries. Recruitment was induced by treating cells with 100 μM abscisic acid (ABA, Sigma) for 48 hours. In parallel, a control batch of cells were treated with equal total volume of DMSO. Cells were then washed in PBS, treated with dissociation buffer (1 mM EDTA, 10 mM KCl, 150 mM NaCl, 5 mM sodium bicarbonate, 0.1% glucose) and resuspended in flow buffer (5 mM EDTA, 25 mM HEPES pH 7, 1% BSA, PBS). High GFP population for each library, top 1% for ORFeome and two bins of top 1% and the next 4% for the TAD screen, were sorted and their genomic DNA directly extracted using QIAmp DNA Blood Mini Kit (QIAGEN).
TAD sequencing. Performed nested PCR on the purified genomic DNA using primers targeting T7 promoter and PYL1 of the backbone vector in the first step creating a ˜470 bp product. Products of the first reaction were then pooled and amplified for an additional 10 steps using primers targeting outside the Gateway sites creating a ˜300 bp product. Libraries were quantified on Qubit dsDNA Broad Range kit and paired-end sequenced on an Illumina MIseq with a custom PAGE-purified R1 sequencing primer. […]

Substance	logFC high GFP	logFC medium GFP	Hit medium GFP	Hit high GFP
BTBD18-24: 60-aa TAD-seq fragment of BTBD18 (IDCREPYAFDTALLEQPCEAEEYRITSAAATSELEEILDFMLCGSDIEPPIGSLESPGAE; listed as Homo sapiens)	1.246	0.8561	hit	
HSF1-25: 60-aa TAD-seq fragment of HSF1 (AQPLFLLDPGSVDTGSNDLPVLFELGEGSYFSEGDGFAEDPTISLLTGSEPPKAKDPTVS; listed as Homo sapiens)	0.7725	1.153	hit	
ATF6B-1: 60-aa TAD-seq fragment of ATF6B (MAELMLLSEIADPTRFFTDNLLSPEDWGLQNSTLYSGLDEVAEEQTQLFRCPEQDVPFDG; listed as Homo sapiens)	1.917	0.9931	hit	hit
SS18L2-2: 60-aa TAD-seq fragment of SS18L2 (QETIQRLLEENDQLIRCIVEYQNKGRGNECVQYQHVLHRNLIYLATIADASPTSTSKAME; listed as Homo sapiens)	1.012	1.166	hit	
FAM22F-20: 60-aa TAD-seq fragment of FAM22F (PAETKVPEEIPPEVVQEYVDIMEELLGSHPGDTGEPEGQREKGKVEQPQEEDGITSDPGL; listed as Homo sapiens)	3.214	2.101	hit	hit
CITED1-7: 60-aa TAD-seq fragment of CITED1 (LQNWDFGAQAGGAESLSPSAGAQSPAIIDSDPVDEEVLMSLVVELGLDRANELPELWLGQ; listed as Homo sapiens)	4.314	1.597	hit	hit
YAF2-6: 60-aa TAD-seq fragment of YAF2 (EKKDKVEKEKSEKETTSKKNSHKKTRPRLKNVDRSSAQHLEVTVGDLTVIITDFKEKTKS; listed as Homo sapiens)	4.316	1.771	hit	hit
ATMIN-24: 60-aa TAD-seq fragment of ATMIN (NPGPDTQLPSGPAQNPGIDFDIEEFFSASNIQTQTEESELSTMTTEPVLESLDIETQTDF; listed as Homo sapiens)	1.233	0.988	hit	
DDIT3-2: 60-aa TAD-seq fragment of DDIT3 (WYEDLQEVLSSDENGGTYVSPPGNEEEESKIFTTLDPASLAWLTEEEPEPAEVTSTSQSP; listed as Homo sapiens)	1.138	1.28	hit	
NEUROG3-5: 60-aa TAD-seq fragment of NEUROG3 (RRSRRKKANDRERNRMHNLNSALDALRGVLPTFPDDAKLTKIETLRFAHNYIWALTQTLR; listed as Homo sapiens)	0.06039	0.6713	hit	
FAM22F-19: 60-aa TAD-seq fragment of FAM22F (PRPQRPAETNAHLPPPRPQRPAETKVPEEIPPEVVQEYVDIMEELLGSHPGDTGEPEGQR; listed as Homo sapiens)	0.9998	0.9884	hit	
ELF4-1: 60-aa TAD-seq fragment of ELF4 (MAITLQPSDLIFEFASNGMDDDIHQLEDPSVFPAVIVEQVPYPDLLHLYSGLELDDVHNG; listed as Homo sapiens)	0.6626	0.7287	hit	
BRD8-23: 60-aa TAD-seq fragment of BRD8 (KEECFRSGVAEAPVGSKAPSIDGKEELDLAEKMDIAVSYTGEELDFETVGDIIAIIEDKV; listed as Homo sapiens)	0.5884	0.5915	hit	
BTBD18-25: 60-aa TAD-seq fragment of BTBD18 (EEYRITSAAATSELEEILDFMLCGSDIEPPIGSLESPGAEGCRTPTYHLTETGKNWIEGE; listed as Homo sapiens)	1.471	1.413	hit	
ATOH1-1: 60-aa TAD-seq fragment of ATOH1 (MSRLLHAEEWAEVKELGDHHRQPQPHHLPQPPPPPQPPATLQAREHPVYPPELSLLDSTD; listed as Homo sapiens)	0.7218	0.9194	hit	
NPAS4-36: 60-aa TAD-seq fragment of NPAS4 (DNMFLEETPVEDIFMDLSTPDPSEEWGSGDPEAEGPGGAPSPCNNLSPEDHSFLEDLATY; listed as Homo sapiens)	0.671	1.209	hit	
MYOD1-2: 60-aa TAD-seq fragment of MYOD1 (CSFATTDDFYDDPCFDSPDLRFFEDLDPRLMHVGALLKPEEHSHFPAAVHPAPGAREDEH; listed as Homo sapiens)	0.7025	0.8486	hit	
FAM90A1-19: 60-aa TAD-seq fragment of FAM90A1 (RQPPHSRPCLPTAQACTMSHHPAASHDGAQPLRVLFRRLENGRWSSSLLTAPSFHSPEKP; listed as Homo sapiens)	2.051	1.557	hit	hit
KLF6-1: 60-aa TAD-seq fragment of KLF6 (MDVLPMCSIFQELQIVHETGYFSALPSLEEYWQQTCLELERYLQSEPCYVSASEIKFDSQ; listed as Homo sapiens)	5.453	1.868	hit	hit
SERTAD2-11: 60-aa TAD-seq fragment of SERTAD2 (SEAGTQKLDGPQESRADDSKLMDSLPGNFEITTSTGFLTDLTLDDILFADIDTSMYDFDP; listed as Homo sapiens)	2.48	1.822	hit	hit
C11orf74-1: 60-aa TAD-seq fragment of C11orf74 (MSAHMSGLEIMDEDQLIKDVLDKFLNCHEQTYDEEFLNTFTHLSQDLLLLPGEVEQDVST; listed as Homo sapiens) [Fragment C11orf74-1]	2.356	1.551	hit	hit
KLF15-6: 60-aa TAD-seq fragment of KLF15 (GPVAWGPWRRAAAPVKGEHFCLPEFPLGDPDDVPRPFQPTLEEIEEFLEENMEPGVKEVP; listed as Homo sapiens)	2.467	1.202	hit	hit
HOXA2-6: 60-aa TAD-seq fragment of HOXA2 (KKAAKKTALLPAAAAAATAAATGPACLSHKESLEIADGSGGGSRRLRTAYTNTQLLELEK; listed as Homo sapiens)	1.951	1.738	hit	
C3orf62-11: 60-aa TAD-seq fragment of C3orf62 (NHMCGHCQDSPFKEEAWALLMDKSPQKATDADPGSLKQAFDDHNIVETVLDLEEDYNVMT; listed as Homo sapiens) [Fragment C3orf62-11]	6.023	−0.5261		hit
